Here are results for two molecules from PMC10347458 (Leukemia, 2023).

SMILES strings stand for the structures. Converted amounts (≈) assume the structure as drawn. Read-outs that look alike come from different tables or passages of the source.

The test system of one series is human T-ALL samples. The experiment in a line: Ex vivo leukemia sensitivity. The format is cell-based.
The format of series [1] is in vivo, NSG mice. The note with it: for AUC(0-inf) / CL/F / Cmax / Tmax / half-life / AUC(0-t): NSG, mouse, in vivo, po; for AUC(0-t): AUC0–24hrs.
For the next series, the system named is pCRKL. The note with it: chronic myeloid leukemia (CML) patients; cited from earlier work.
Series [2] has as its system LCK-activated T-ALL PDX models. The series can be described thus: In vivo evaluation of ponatinib efficacy in T-ALL PDXs. Further details: species or system NSG mice. To be noted: 30 mg/kg once daily oral, three T-ALL PDX models, blast % in peripheral blood.
Series [3] addresses pLCK (phosphorylated LCK) (Homo sapiens, UniProt P06239). The series can be described thus: PD: pLCK. The format is in vivo. To be noted: for Median duration of pLCK/LCK <50% (10th-90th percentile): mice (Table 2).
In a further series the target is LCK (T316I) in KOPT-K1-R (Homo sapiens, UniProt P06239, T316I). To be noted: 100nM, 3 hrs treatment.
Chain of LCK (T316I) in KOPT-K1-R (P06239 whole entry T316I): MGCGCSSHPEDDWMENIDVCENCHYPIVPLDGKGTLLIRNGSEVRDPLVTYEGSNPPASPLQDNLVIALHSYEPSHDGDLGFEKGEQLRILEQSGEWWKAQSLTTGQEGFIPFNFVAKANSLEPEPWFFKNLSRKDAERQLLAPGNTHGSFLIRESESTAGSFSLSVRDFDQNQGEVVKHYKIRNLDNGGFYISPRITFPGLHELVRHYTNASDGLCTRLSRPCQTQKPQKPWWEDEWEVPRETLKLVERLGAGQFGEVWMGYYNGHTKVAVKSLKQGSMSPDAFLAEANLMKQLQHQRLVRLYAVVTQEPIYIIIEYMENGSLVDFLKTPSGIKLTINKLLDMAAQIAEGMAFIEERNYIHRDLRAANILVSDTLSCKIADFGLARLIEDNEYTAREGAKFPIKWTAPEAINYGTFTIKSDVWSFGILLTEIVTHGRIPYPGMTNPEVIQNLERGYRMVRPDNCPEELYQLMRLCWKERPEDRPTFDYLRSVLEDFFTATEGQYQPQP

Chain of pLCK (phosphorylated LCK) (P06239 whole entry): as the sequence (P06239 whole entry T316I) above, with I316T counted along it

As usually defined, the AUC(0-inf) is total exposure, with the tail of the curve extrapolated. Lower therefore signals less exposure. What is called CL/F is the apparent clearance, not corrected for the fraction that reaches the circulation. A word on the Cmax: it is the highest concentration seen after dosing. Broadly, the Tmax is the time at which the peak concentration occurs. In general, half-life refers to the time in which the quantity being followed falls by half. As a reminder, the AUC(0-t) is exposure summed from dosing to a finite time, without extrapolation to infinity. In the case of `Cc1nc(Nc2ncc(C(=O)Nc3c(C)cccc3Cl)s2)cc(N2CCN(CCO)CC2)n1` [dasatinib], the “Dasatinib sensitivity (LC50 <80nM) observed” value in the series with human T-ALL samples (adult T-ALL) was 9.1%. The “Dasatinib sensitivity (LC50 <80nM) observed” value with human T-ALL samples (pediatric T-ALL) is reported as 47.5%. Also, in series [1] (20 mg/kg), the area under the curve AUC(0-inf) was 500 ng·h/mL, the CL/F is 667 mL/min/kg, the highest level (Cmax) was 102 ng/mL and the time to peak (Tmax) came to 1.17 h. The half-life in series [1] (20 mg/kg) was 21 min. Also, in series [1] (40 mg/kg), the AUC(0-inf) turned out to be 1950 ng·h/mL, the apparent clearance (CL/F) worked out at 341 mL/min/kg, the Cmax stood at 366 ng/mL and the Tmax was determined as 1.17 h. In series [1] (40 mg/kg), this molecule showed a half-life of 20.4 min and an area under the curve AUC(0-t) of 1940 ng·h/mL. Moreover, in the series on pCRKL, the “Time above 50% pCRKL inhibition considered sufficient to elicit a clinical response” value was 12.8 hrs per day.

As usually defined, the EC90 is the point of the concentration-response curve where the effect stands at 90%. Turning to `Cc1ccc(C(=O)Nc2ccc(CN3CCN(C)CC3)c(C(F)(F)F)c2)cc1C#Cc1cnc2cccnn12` [ponatinib], in the series with human T-ALL samples (51 samples with both drugs tested, P =0.0038, Wilcoxon matched-pairs signed rank test), the “LC50 compared with that of dasatinib” value is “significantly lower”. The CC50 with human T-ALL samples (Homo sapiens, read-out: Median LC50) was 433 nM. Moreover, the “Samples classified as sensitive to ponatinib (LC50 cutoff 90nM)” value in the series on human T-ALL samples (all 52 T-ALL cases (n=17)) is listed as 32.7%. In series [2], the “Leukemia growth in mice vs vehicle control” value is “significantly inhibited leukemia growth”. In series [1] (15 mg/kg), the AUC(0-inf) worked out at 1530 ng·h/mL, the CL/F was 163 mL/min/kg, the concentration peaked (Cmax) at 181 ng/mL and the Tmax is 3.04 h. For the same molecule, in series [1] (15 mg/kg), the half-life was 115 min. Further, in series [1] (15 mg/kg, ponatinib 15 mg (15 mg/kg) single oral dose, NSG mice, median (5th-95th percentile)), the AUC(0-t) is 1530 ng·h/mL. Also, in series [1] (30 mg/kg), the total exposure AUC(0-inf) worked out at 3010 ng·h/mL, the apparent clearance (CL/F) is 166 mL/min/kg, the concentration peaked (Cmax) at 356 ng/mL and the Tmax turned out to be 3.08 h. The molecule further showed a half-life in series [1] (30 mg/kg) of 115 min. In addition, the exposure AUC(0-t) in series [1] (30 mg/kg, ponatinib 30 mg (30 mg/kg) single oral dose, NSG mice, median (5th-95th percentile)) turned out to be 3000 ng·h/mL. In series [1] (ponatinib 30 mg (30 mg/kg) single oral dose, NSG mice, median (5th-95th percentile)), the “AUC0–24hrs” value is given as 2996.56 (2707.46–3351.17) ng hr/mL. Also, the EC90 in series [3] (po, read-out: EC90 (CV%)) stood at 0.063 µg/mL (≈ 0.118 µM). In addition, the “Median duration of pLCK/LCK <50% (10th-90th percentile)” value in series [3] (ponatinib 15 mg/kg oral) was 15 mg/kg 10.5 (0, 24.0) hrs/day. Also, in series [3] (ponatinib 30 mg/kg oral), the “Median duration of pLCK/LCK <50% (10th-90th percentile)” value is 30 mg/kg 14.8 (0, 24.0) hrs/day. Moreover, at LCK (T316I) in KOPT-K1-R, the “Block of LCK phosphorylation” value is listed as “around 50%”.
